Columns and labels:
Experiment in all cases: Test B preemergence/postemergence greenhouse plant response rating 0 to 10
chickweed = assay type: in vivo, Stellaria media; conditions: Rate 200 g/ha, 0 to 10 scale
From the text: (§1) Seeds of barley (Hordeum vulgare), barnyardgrass (Echinochloa crus-galli), bedstraw (Galium aparine), blackgrass (Alopecurus myosuroides), […] (Bromus secalinus), chickweed (Stellaria media), cocklebur (Xanthium pensylvanicum), corn (Zea mays), cotton (Gossypium hirsutum), crabgrass (Digitaria spp.), giant foxtail (Setaria faberii), lambsquarters (Chenopodium album), morningglory (Ipomoea hederacea), rape (Brassica napus), rice (Oryza sativa), sorghum (Sorghum bicolor), soybean (Glycine max), sugar beet (Beta vulgaris), velvetleaf (Abutilon theophrasti), wheat (Triticum aestivum), wild buckwheat (Polygonum convolvulus), and wild oat (Avena fatua) and purple nutsedge. (Cyperus rotundus) tubers were planted and treated preemergence with test chemicals dissolved in a non-phytotoxic solvent. At the same time, these crop and weed species were also treated with postemergence applications of test chemicals. Plants ranged in height from two to eighteen cm (one to four leaf stage) for postemergence treatments. Treated plants and controls were maintained in a greenhouse for twelve to sixteen days, after which all species were compared to controls and visually evaluated. […] A dash (-) response means no test result.

wild oat = assay type: in vivo, Avena fatua; conditions: 0 to 10 scale
From the text: as §1

wheat = assay type: in vivo, Triticum aestivum; conditions: 0 to 10 scale
From the text: as §1

cocklebur = assay type: in vivo, Xanthium pensylvanicum; conditions: 0 to 10 scale
From the text: as §1

velvetleaf = assay type: in vivo, Abutilon theophrasti; conditions: 0 to 10 scale
From the text: as §1

bedstraw = assay type: in vivo, Galium aparine; conditions: 0 to 10 scale
From the text: as §1

giant foxtail = assay type: in vivo, Setaria faberii; conditions: 0 to 10 scale
From the text: as §1

wild buckwheat = assay type: in vivo, Polygonum convolvulus; conditions: 0 to 10 scale
From the text: as §1

purple nutsedge = assay type: in vivo, Cyperus rotundus; conditions: 0 to 10 scale
From the text: as §1

rice = assay type: in vivo, Oryza sativa; conditions: 0 to 10 scale
From the text: as §1

cotton = assay type: in vivo, Gossypium hirsutum; conditions: 0 to 10 scale
From the text: as §1

barley = assay type: in vivo, Hordeum vulgare; conditions: 0 to 10 scale
From the text: as §1

cheatgrass = assay type: in vivo, Bromus secalinus; conditions: 0 to 10 scale
From the text: as §1

barnyardgrass = assay type: in vivo, Echinochloa crus-galli; conditions: 0 to 10 scale
From the text: as §1

morningglory = assay type: in vivo, Ipomoea hederacea; conditions: 0 to 10 scale
From the text: as §1

crabgrass = assay type: in vivo, Digitaria spp.; conditions: 0 to 10 scale
From the text: as §1

blackgrass = assay type: in vivo, Alopecurus myosuroides; conditions: 0 to 10 scale
From the text: as §1

sorghum = assay type: in vivo, Sorghum bicolor; conditions: 0 to 10 scale
From the text: as §1

sugar beet = assay type: in vivo, Beta vulgaris; conditions: 0 to 10 scale
From the text: as §1

soybean = assay type: in vivo, Glycine max; conditions: 0 to 10 scale
From the text: as §1

lambsquarters = assay type: in vivo, Chenopodium album; conditions: 0 to 10 scale
From the text: as §1

corn = assay type: in vivo, Zea mays; conditions: 0 to 10 scale
From the text: as §1

rape = assay type: in vivo, Brassica napus; conditions: 0 to 10 scale
From the text: as §1

SMILES: Clc1ccc(-c2nn3c(c2Cl)CCCC3)c(Cl)c1 [Compound 35]
- Plant response rating, Chickweed (chickweed; POSTEMERGENCE): 3
- Plant response rating, Chickweed (chickweed; PREEMERGENCE): 9
- Plant response rating, Wild oat (wild oat; POSTEMERGENCE, Rate 50 g/ha): 3
- Plant response rating, Wild oat (wild oat; PREEMERGENCE, Rate 50 g/ha): 0
- Plant response rating, Wild oat (wild oat; Rate 200 g/ha, POSTEMERGENCE): 4
- Plant response rating, Wheat (wheat; POSTEMERGENCE, Rate 50 g/ha): 2
- Plant response rating, Wheat (wheat; PREEMERGENCE, Rate 50 g/ha): 0
- Plant response rating, Wheat (wheat; Rate 200 g/ha, POSTEMERGENCE): 5
- Plant response rating, Wheat (wheat; Rate 200 g/ha, PREEMERGENCE): 7
- Plant response rating, Cocklebur (cocklebur; POSTEMERGENCE, Rate 50 g/ha): 5
- Plant response rating, Cocklebur (cocklebur; POSTEMERGENCE, Rate 200 g/ha): 7
- Plant response rating, Cocklebur (cocklebur; PREEMERGENCE, Rate 50 g/ha): 0
- Plant response rating, Cocklebur (cocklebur; Rate 200 g/ha, PREEMERGENCE): 2
- Plant response rating, Velvetleaf (velvetleaf; POSTEMERGENCE, Rate 50 g/ha): 8
- Plant response rating, Velvetleaf (velvetleaf; PREEMERGENCE, Rate 50 g/ha): 2
- Plant response rating, Velvetleaf (velvetleaf; Rate 200 g/ha, POSTEMERGENCE): 10
- Plant response rating, Velvetleaf (velvetleaf; Rate 200 g/ha, PREEMERGENCE): 10
- Plant response rating, Bedstraw (bedstraw; POSTEMERGENCE, Rate 50 g/ha): 7
- Plant response rating, Bedstraw (bedstraw; POSTEMERGENCE, Rate 200 g/ha): 9
- Plant response rating, Bedstraw (bedstraw; PREEMERGENCE, Rate 50 g/ha): 0
- Plant response rating, Bedstraw (bedstraw; Rate 200 g/ha, PREEMERGENCE): 8
- Plant response rating, Giant foxtail (giant foxtail; POSTEMERGENCE, Rate 50 g/ha): 4
- Plant response rating, Giant foxtail (giant foxtail; PREEMERGENCE, Rate 50 g/ha): 2
- Plant response rating, Giant foxtail (giant foxtail; Rate 200 g/ha, POSTEMERGENCE): 7
- Plant response rating, Giant foxtail (giant foxtail; Rate 200 g/ha, PREEMERGENCE): 9
- Plant response rating, Wild buckwheat (wild buckwheat; POSTEMERGENCE, Rate 50 g/ha): 6
- Plant response rating, Wild buckwheat (wild buckwheat; PREEMERGENCE, Rate 50 g/ha): 0
- Plant response rating, Wild buckwheat (wild buckwheat; Rate 200 g/ha, POSTEMERGENCE): 10
- Plant response rating, Wild buckwheat (wild buckwheat; Rate 200 g/ha, PREEMERGENCE): 1
- Plant response rating, Nutsedge (purple nutsedge; POSTEMERGENCE, Rate 50 g/ha): 1
- Plant response rating, Nutsedge (purple nutsedge; PREEMERGENCE, Rate 50 g/ha): 0
- Plant response rating, Nutsedge (purple nutsedge; Rate 200 g/ha, POSTEMERGENCE): 3
- Plant response rating, Nutsedge (purple nutsedge; Rate 200 g/ha, PREEMERGENCE): 2
- Plant response rating, Rice (rice; POSTEMERGENCE, Rate 50 g/ha): 5
- Plant response rating, Rice (rice; PREEMERGENCE, Rate 50 g/ha): 0
- Plant response rating, Rice (rice; Rate 200 g/ha, POSTEMERGENCE): 6
- Plant response rating, Rice (rice; Rate 200 g/ha, PREEMERGENCE): 2
- Plant response rating, Cotton (cotton; POSTEMERGENCE, Rate 50 g/ha): 9
- Plant response rating, Cotton (cotton; POSTEMERGENCE, Rate 200 g/ha): 10
- Plant response rating, Cotton (cotton; PREEMERGENCE, Rate 50 g/ha): 0
- Plant response rating, Cotton (cotton; Rate 200 g/ha, PREEMERGENCE): 4
- Plant response rating, Barley (barley; POSTEMERGENCE, Rate 50 g/ha): 2
- Plant response rating, Barley (barley; POSTEMERGENCE, Rate 200 g/ha): 4
- Plant response rating, Barley (barley; PREEMERGENCE, Rate 50 g/ha): 0
- Plant response rating, Barley (barley; Rate 200 g/ha, PREEMERGENCE): 0
- Plant response rating, Cheatgrass (cheatgrass; POSTEMERGENCE, Rate 50 g/ha): 3
- Plant response rating, Cheatgrass (cheatgrass; POSTEMERGENCE, Rate 200 g/ha): 5
- Plant response rating, Cheatgrass (cheatgrass; PREEMERGENCE, Rate 50 g/ha): 1
- Plant response rating, Cheatgrass (cheatgrass; Rate 200 g/ha, PREEMERGENCE): 5
- Plant response rating, Barnyardgrass (barnyardgrass; POSTEMERGENCE, Rate 50 g/ha): 5
- Plant response rating, Barnyardgrass (barnyardgrass; POSTEMERGENCE, Rate 200 g/ha): 9
- Plant response rating, Barnyardgrass (barnyardgrass; PREEMERGENCE, Rate 50 g/ha): 1
- Plant response rating, Barnyardgrass (barnyardgrass; Rate 200 g/ha, PREEMERGENCE): 7
- Plant response rating, Morningglory (morningglory; POSTEMERGENCE, Rate 50 g/ha): 5
- Plant response rating, Morningglory (morningglory; PREEMERGENCE, Rate 50 g/ha): 0
- Plant response rating, Morningglory (morningglory; Rate 200 g/ha, POSTEMERGENCE): 7
- Plant response rating, Morningglory (morningglory; Rate 200 g/ha, PREEMERGENCE): 2
- Plant response rating, Crabgrass (crabgrass; POSTEMERGENCE, Rate 50 g/ha): 3
- Plant response rating, Crabgrass (crabgrass; POSTEMERGENCE, Rate 200 g/ha): 6
- Plant response rating, Crabgrass (crabgrass; PREEMERGENCE, Rate 50 g/ha): 4
- Plant response rating, Crabgrass (crabgrass; Rate 200 g/ha, PREEMERGENCE): 9
- Plant response rating, Blackgrass (blackgrass; POSTEMERGENCE, Rate 50 g/ha): 3
- Plant response rating, Blackgrass (blackgrass; POSTEMERGENCE, Rate 200 g/ha): 4
- Plant response rating, Blackgrass (blackgrass; PREEMERGENCE, Rate 50 g/ha): 0
- Plant response rating, Blackgrass (blackgrass; Rate 200 g/ha, PREEMERGENCE): 4
- Plant response rating, Sorghum (sorghum; POSTEMERGENCE, Rate 50 g/ha): 5
- Plant response rating, Sorghum (sorghum; PREEMERGENCE, Rate 50 g/ha): 0
- Plant response rating, Sorghum (sorghum; Rate 200 g/ha, POSTEMERGENCE): 6
- Plant response rating, Sorghum (sorghum; Rate 200 g/ha, PREEMERGENCE): 3
- Plant response rating, Sugar beet (sugar beet; POSTEMERGENCE, Rate 50 g/ha): 9
- Plant response rating, Sugar beet (sugar beet; PREEMERGENCE, Rate 50 g/ha): 0
- Plant response rating, Sugar beet (sugar beet; Rate 200 g/ha, POSTEMERGENCE): 10
- Plant response rating, Sugar beet (sugar beet; Rate 200 g/ha, PREEMERGENCE): 4
- Plant response rating, Soybean (soybean; POSTEMERGENCE, Rate 50 g/ha): 4
- Plant response rating, Soybean (soybean; PREEMERGENCE, Rate 50 g/ha): 0
- Plant response rating, Soybean (soybean; Rate 200 g/ha, POSTEMERGENCE): 5
- Plant response rating, Soybean (soybean; Rate 200 g/ha, PREEMERGENCE): 3
- Plant response rating, Lambsquarter (lambsquarters; POSTEMERGENCE, Rate 50 g/ha): 9
- Plant response rating, Lambsquarter (lambsquarters; PREEMERGENCE, Rate 50 g/ha): 10
- Plant response rating, Lambsquarter (lambsquarters; Rate 200 g/ha, POSTEMERGENCE): 10
- Plant response rating, Lambsquarter (lambsquarters; Rate 200 g/ha, PREEMERGENCE): 10
- Plant response rating, Corn (corn; POSTEMERGENCE, Rate 50 g/ha): 4
- Plant response rating, Corn (corn; POSTEMERGENCE, Rate 200 g/ha): 7
- Plant response rating, Corn (corn; PREEMERGENCE, Rate 50 g/ha): 0
- Plant response rating, Corn (corn; Rate 200 g/ha, PREEMERGENCE): 3
- Plant response rating, Rape (rape; POSTEMERGENCE, Rate 50 g/ha): 6
- Plant response rating, Rape (rape; PREEMERGENCE, Rate 50 g/ha): 0
- Plant response rating, Rape (rape; Rate 200 g/ha, POSTEMERGENCE): 9
